According to PMC8228174, “In Vitro Characterization of Guanylyl Cyclase BdPepR2 from Brachypodium distachyon Identified through a Motif-Based Approach” (International Journal of Molecular Sciences, 2021):

B1: BdPepR2 (Brachypodium distachyon) (protein)
chain: MPGRLSAKRVSLRSLDSTEELPEDMTYEDILRATDNWSEKYVIGKGRHGTVYRTDCKLGKQWAVKTVDLSQCKFPIEMKILNTVKHRNIVRMAGYYIRGNVGLILYEYMPEGTLFELLHERKPQVALGWMARHQIALGVAQGLSYLHQDCVPMIVHRDVKSSNILMDVELVPKLTDFGMGKIVGDEDSDATVSVIVGTLGYIAPEHGYSTRLSEKSDVYSYGVVLLELLCRKMPVDSAFGDGVDIVTWMRSNLKQADHCSVMSCLDEEIVYWPEDEQAKALHLLDLAISCTEVACQLRPSMREVVNVLVRMDK
notes: full length 1146 aa; pGEX-6P-2, E. coli BL21(DE3)pLysS; GST tag cut off with PreScission protease

Experiments:
BdPepR2 [1] = target: T1, BdPepR2 (Brachypodium distachyon, UniProt A0A2K2CYK2); assay: Kinase-Glo plus luminescent kinase assay; format: biochemical; conditions: 1 µM cGMP suppresses kinase activity; 100 μM ATP, Histone Type III-S, 5 mM MgCl2 and 5 mM MnCl2, 1 mM DTT, 25 mM Tris/HCl pH 7.5, 30 °C; extent only in figure
T1 construct: gene LOC100834510; full length 1146 aa; pGEX-6P-2, E. coli BL21(DE3)pLysS; GST tag cut off with PreScission protease
Target sequence in this assay (A0A2K2CYK2 entry or part of it M1083R): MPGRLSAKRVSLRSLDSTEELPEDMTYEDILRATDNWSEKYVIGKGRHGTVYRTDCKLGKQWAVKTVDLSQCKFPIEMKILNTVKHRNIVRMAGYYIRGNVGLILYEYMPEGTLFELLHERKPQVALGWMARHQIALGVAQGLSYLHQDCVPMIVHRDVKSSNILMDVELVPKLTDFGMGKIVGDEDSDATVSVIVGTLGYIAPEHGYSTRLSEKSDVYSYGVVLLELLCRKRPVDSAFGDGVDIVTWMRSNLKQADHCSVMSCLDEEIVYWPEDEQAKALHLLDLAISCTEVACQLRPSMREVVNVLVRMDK

BdPepR2 [2] = target: T1, BdPepR2; assay: Kinase-Glo plus luminescent kinase assay; format: biochemical; conditions: 1 µM cGMP suppresses kinase activity; 100 μM ATP, Histone Type III-S, 5 mM MgCl2 and 5 mM MnCl2, 1 mM DTT, 25 mM Tris/HCl pH 7.5, 30 °C; extent only in figure; remark: listed apart in the source
BdPepR2 [3] = target: T2, BdPepR2 (Brachypodium distachyon, UniProt A0A2K2CYK2, M1083A); assay: Kinase-Glo plus luminescent kinase assay; format: biochemical; conditions: 1 µM cGMP suppresses kinase activity; 100 μM ATP, Histone Type III-S, 5 mM MgCl2 and 5 mM MnCl2, 1 mM DTT, 25 mM Tris/HCl pH 7.5, 30 °C; extent only in figure
T2 construct: gene LOC100834510; full length 1146 aa; pGEX-6P-2, E. coli BL21(DE3)pLysS; GST tag cut off with PreScission protease
T2 sequence (A0A2K2CYK2 entry or part of it M1083A): as the sequence (A0A2K2CYK2 entry or part of it M1083R) above, with R233A counted along it

[4] = substrate: Nc1nc2c(ncn2[C@@H]2O[C@H](COP(=O)(O)OP(=O)(O)OP(=O)(O)O)[C@@H](O)[C@H]2O)c(=O)[nH]1; assay: guanylyl cyclase assay, cGMP by LC-MS/MS; format: biochemical, Brachypodium distachyon; conditions: 5 mM MnCl2, 50 mM Tris/HCl pH 7.5, 30 °C, 15 min, GTP 0.5-2 mM, GC centre

Row | Molecule | Kinase-Glo plus luminescent kinase assay (BdPepR2 [1]) | Kinase-Glo plus luminescent kinase assay (BdPepR2 [2]) | Kinase-Glo plus luminescent kinase assay (BdPepR2 [3]) | Km [4] [µM]
1 | Nc1nc2c(ncn2[C@@H]2O[C@@H]3COP(=O)(O)O[C@H]3[C@H]2O)c(=O)[nH]1 [cGMP] | kinase activity of BdPepR2, BdPepR2M1066A, and BdPepR2M1066R is suppressed by GTP and cGMP | only the product of GC activity, cGMP, statistically significantly suppress kinase activity of BdPepR2 | kinase activity of BdPepR2, BdPepR2M1066A, and BdPepR2M1066R is suppressed by GTP and cGMP | 
2 | B1 |  |  |  | 1189
